The source of these data is patent US20250282799A1, “SUBSTITUTED PYRIDO[4,3-d]PYRIMIDINES AS KRAS MODULATORS” (Alterome Therapeutics, Inc., priority 2023, published 2025).

This assay relates to KRAS G12V dependent lung adenocarcinoma cell line, NCI-H441. As to the kind of experiment: Cellular pERK (Thr202/Tyr204) FRET/HTRF assay. The format is cell-based. As to conditions: Homo sapiens, NCI-H441, cellular pERK (Thr202/Tyr204) HTRF, NCI-H441 cells. The essentials:
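NCI-H441 cells (KRAS G12V) plated overnight at 37 °C, then exposed to compounds for 1 hr at 37 °C, 5% CO2; DMSO as negative control. Lysates read by Eu-cryptate/d2 sandwich FRET (665 nm) for ERK1/2 phosphorylated at Thr202/Tyr204; IC50 from curve fit.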
(In general: Time-resolved FRET reads energy transfer from a long-lived donor to a nearby acceptor.)
The IC50 is the midpoint of a concentration-inhibition curve. Lower therefore signals greater potency. The compound `C#Cc1c(F)ccc2cc(N)cc(-c3ncc4c(N5CCOC[C@H]6[C@H](F)[C@H]65)nc(OC[C@@]56CCCN5C/C(=C\F)C6)nc4c3F)c12` [Example 155, 5-Ethynyl-6-fluoro-4-(8-fluoro-4-((1S,7S,8S)-8-fluoro-5-oxa-2-azabicyclo[5.1.0]octan-2-yl)-2-(((S,Z)-2-(fluoromethylene)tetrahydro-1H-pyrrolizin-7a(5H)-yl)methoxy)pyrido[4,3-d]pyrimidin-7-yl)naphthalen-2-amine] gave a half-maximal inhibitory concentration (IC50) of under 50 nM.

Take `[2H]C([2H])(F)Oc1c(F)ccc2cccc(-c3ncc4c(N5CCOC[C@H]6[C@H](F)[C@H]65)nc(OC[C@@]56CCCN5C/C(=C/F)C6)nc4c3F)c12` [Example 156, (1S,7S,8S)-8-fluoro-2-(8-fluoro-7-(7-fluoro-8-(fluoromethoxy-d2)naphthalen-1-yl)-2-(((S,E)-2-(fluoromethylene)tetrahydro-1H-pyrrolizin-7a(5H)-yl)methoxy)pyrido[4,3-d]pyrimidin-4-yl)-5-oxa-2-azabicyclo[5.1.0]octane]: the IC50 was under 50 nM.

Turning to `[2H]C([2H])(F)Oc1c(F)ccc2cccc(-c3ncc4c(N5CCOC[C@H]6[C@H](F)[C@H]65)nc(OC[C@@]56CCCN5C/C(=C\F)C6)nc4c3F)c12` [Example 157, (1S,7S,8S)-8-fluoro-2-(8-fluoro-7-(7-fluoro-8-(fluoromethoxy-d2)naphthalen-1-yl)-2-(((S,Z)-2-(fluoromethylene)tetrahydro-1H-pyrrolizin-7a(5H)-yl)methoxy)pyrido[4,3-d]pyrimidin-4-yl)-5-oxa-2-azabicyclo[5.1.0]octane], the IC50 was under 50 nM.

Compound `C#Cc1c(F)ccc2cc(N)cc(-c3ncc4c(N5CCOC[C@H]6[C@H](F)[C@H]65)nc(OC[C@@]56CCCN5CC(=C)C6)nc4c3F)c12` [Example 158, 5-Ethynyl-6-fluoro-4-(8-fluoro-4-((1S,7S,8S)-8-fluoro-5-oxa-2-azabicyclo[5.1.0]octan-2-yl)-2-(((S)-2-methylenetetrahydro-1H-pyrrolizin-7a(5H)-yl)methoxy)pyrido[4,3-d]pyrimidin-7-yl)naphthalen-2-amine] registered an IC50 of under 50 nM.

In turn, `[2H]C([2H])(Oc1nc(N2CCOC[C@H]3[C@H](F)[C@H]32)c2cc(Cl)c(-c3nc(N)cc(C)c3C(F)(F)F)c(F)c2n1)[C@@]12CCCN1C[C@H](F)C2` [Example 159, 6-(6-Chloro-8-fluoro-4-((1S,7S,8S)-8-fluoro-5-oxa-2-azabicyclo[5.1.0]octan-2-yl)-2-(((2R,7aS)-2-fluorotetrahydro-1H-pyrrolizin-7a(5H)-yl)methoxy-d2)quinazolin-7-yl)-4-methyl-5-(trifluoromethyl)pyridin-2-amine] registered an IC50 of under 50 nM.

The compound `[2H]C([2H])(Oc1nc(N2CCOC[C@@H]3[C@@H](F)[C@@H]32)c2cc(Cl)c(-c3nc(N)cc(C)c3C(F)(F)F)c(F)c2n1)[C@@]12CCCN1C[C@H](F)C2` [Example 160, 6-(6-chloro-8-fluoro-4-((1R,7R,8R)-8-fluoro-5-oxa-2-azabicyclo[5.1.0]octan-2-yl)-2-(((2R,7aS)-2-fluorotetrahydro-1H-pyrrolizin-7a(5H)-yl)methoxy-d2)quinazolin-7-yl)-4-methyl-5-(trifluoromethyl)pyridin-2-amine] registered an IC50 of 50 to 500 nM.

`C#Cc1c(F)ccc2cc(N)cc(-c3ncc4c(N5CCOC[C@H]6[C@H](F)[C@H]65)nc(OC[C@@]56CCCN5C/C(=C/F)C6)nc4c3F)c12` [Example 161, 5-Ethynyl-6-fluoro-4-(8-fluoro-4-((1S,7S,8S)-8-fluoro-5-oxa-2-azabicyclo[5.1.0]octan-2-yl)-2-(((S,E)-2-(fluoromethylene)tetrahydro-1H-pyrrolizin-7a(5H)-yl)methoxy)pyrido[4,3-d]pyrimidin-7-yl)naphthalen-2-amine]: the IC50 was under 50 nM.
